Measured values reported in patent publication US9278134B2, “Dual functioning ionic liquids and salts thereof” (priority 2008, dated 2016).

test: Thermal decomposition onset (T5% onset) by TGA; details: not given

Molecule | T5%onset [°C]
CC(C)Cc1ccc(C(C)C(=O)O)cc1.COc1cccc(C2(O)CCCCC2CN(C)C)c1 (racemic) [Example 48, Tramadolium rac-ibuprofenate] | 175
CCCCCCCCCCCCCCCC[n+]1ccccc1 [CetPy:Sal 1:1, Cetylpyridinium Salicylate] | 206
CC(C)(Oc1ccc(Cl)cc1)C(=O)O.CN[C@@H](C)[C@H](O)c1ccccc1 [Eph:Clofib 1:1, Ephedrinium Clofibrate] | 166
CN[C@@H](C)[C@H](O)c1ccccc1.O=C(O)c1ccccc1O [Eph:Sal 1:1, Ephedrinium Salicylate] | 161
CCN(CC)CC(=O)Nc1c(C)cccc1C.CN[C@@H](C)[C@H](O)c1ccccc1.O=C(O)c1ccccc1O [Example 23, Ephedrinium-lidocaine Salicylate] | 149
CCN(CC)CC(=O)Nc1c(C)cccc1C.COc1cccc(C2(O)CCCCC2CN(C)C)c1.O=C(O)c1ccccc1O (stereo not drawn) [Example 26, Tramadolium-lidocaine Salicylate] | 181
CC(CN1c2ccccc2Sc2ccccc21)N(C)C.CCCCC(CC)COC(=O)CC(C(=O)OCC(CC)CCCC)S(=O)(=O)O.CN[C@@H](C)[C@H](O)c1ccccc1 (stereo not drawn) [Example 27, Promethazine-ephedrinium Docusate 1:1:1] | 164
CC(CN1c2ccccc2Sc2ccccc21)N(C)C.CN[C@@H](C)[C@H](O)c1ccccc1.O=C(O)c1ccccc1O (stereo not drawn) [Example 29, Promethazine-ephedrinium Salicylate] | 151
CC(=O)Nc1ccc(OC(=O)Cn2cc[n+](C)c2)cc1 [Example 31, 1-(2-(4-acetamidophenoxy)-2-oxoethyl)-3-methyl-1H-imidazol-3-ium Chloride] | 200
CC(=O)Nc1ccc(OC(=O)C[N+]2(C)CCCC2)cc1 [Example 32, 1-(2-(4-acetamidophenoxy)-2-oxoethyl)-1-methylpyrrolidinium Chloride] | 197
CC(=O)Nc1ccc(OC(=O)C[n+]2ccccc2)cc1 [Example 33, 1-(2-(4-acetamidophenoxy)-2-oxoethyl)pyridinium Chloride] | 198
CCCC[P+](CCCC)(CCCC)CC(=O)Oc1ccc(NC(C)=O)cc1 [Example 34, (2-(4-acetamidophenoxy)-2-oxoethyl)tributylphosphonium Chloride] | 197
CC(=O)Nc1ccc(OC(=O)C[N+]2(C)CCCC2)cc1 [Example 36, 1-(2-(4-acetamidophenoxy)-2-oxoethyl)-1-methylpyrrolidinium Docusate] | 233
CC(=O)Nc1ccc(OC(=O)C[n+]2ccccc2)cc1 [Example 37, 1-(2-(4-acetamidophenoxy)-2-oxoethyl)pyridinium Docusate] | 238
CCCC[PH](CCCC)(CCCC)CC(=O)Oc1ccc(NC(C)=O)cc1 [Example 38, (2-(4-acetamidophenoxy)-2-oxoethyl)tributylphosphonium Docusate] | 227
CC(=O)Nc1ccc(OC(=O)C[N+]2(C)CCCC2)cc1.CC(O)C(=O)O [Example 40, 1-(2-(4-acetamidophenoxy)-2-oxoethyl)-1-methylpyrrolidinium Lactate] | 166
CC(C)=CCC/C(C)=C/COC(=O)Cn1cc[n+](C)c1 [Example 43, (E)-1-(2-(3,7-dimethylocta-2,6-dienyloxy)-2-oxoethyl)-3-methyl-1H-imidazol-3-ium Chloride] | 125

Molecule | T5%onset [°C]
CC(C)=CCC/C(C)=C/COC(=O)CCC(=O)O [Example 46, 2-Hydroxy-N,N,N-trimethylethanaminium (E)-4-(3,7-dimethylocta-2,6-dienyloxy)-4-oxobutanoate] | 170
COc1cccc(C2(O)CCCCC2CN(C)C)c1.O=C(O)c1ccccc1O (stereo not drawn) [Example 47, Tramadolium Salicylate] | 220
COc1cccc(C2(O)CCCCC2CN(C)C)c1.Cc1ccc(Cl)c(Nc2ccccc2C(=O)O)c1Cl (stereo not drawn) [Example 50, Tramadolium Meclofenamate] | 172
CCCCC(CC)COC(=O)CC(C(=O)OCC(CC)CCCC)S(=O)(=O)O.COc1cccc(C2(O)CCCCC2CN(C)C)c1 (stereo not drawn) [Example 51, Tramadolium Docusate] | 226
CC(C)Cc1ccc(C(C)C(=O)O)cc1.CN[C@@H](C)[C@H](O)c1ccccc1 (stereo not drawn) [Example 57, Ephedrinium Ibuprofenate] | 238
CCCCC(CC)COC(=O)CC(C(=O)OCC(CC)CCCC)S(=O)(=O)O.CN[C@@H](C)[C@H](O)c1ccccc1 (stereo not drawn) [Example 59, Ephedrinium Docusate] | 238
CC(CN1c2ccccc2Sc2ccccc21)N(C)C.CCCCC(CC)COC(=O)CC(C(=O)OCC(CC)CCCC)S(=O)(=O)O (stereo not drawn) [Example 60, Promethazine Docusate] | 246
CCN(CC)CCNC(=O)c1ccc(N)cc1.O=C(O)c1ccccc1O [Example 61, Procainamide Salicylate] | 199
CC(C)Cc1ccc(C(C)C(=O)O)cc1.CCN(CC)CCNC(=O)c1ccc(N)cc1 [Example 62, Procainamide Ibuprofenate] | 182
CCCCC(CC)COC(=O)CC(C(=O)OCC(CC)CCCC)S(=O)(=O)O.CCN(CC)CCNC(=O)c1ccc(N)cc1 (stereo not drawn) [Example 63, Procainamide Docusate] | 231
CCCCC(CC)COC(=O)CC(C(=O)OCC(CC)CCCC)S(=O)(=O)[O-].CCCC[P+](CCO)(CCCC)CCCC (stereo not drawn) [Example 66, Tributylhydroxyethylphosphonium Docusate] | 280
CCN(CC)CC(=O)Nc1c(C)cccc1C.O=C(O)c1ccccc1O [Lid:Sal 1:1, Lidocainium Salicylate] | 161
CC(C)Cc1ccc(C(C)C(=O)[O-])cc1.CCCC[P+](CCCC)(CCCC)CCCC [P(Bu)4Ibu 1:1, Tetrabutylphosphonium Ibuprofenate] | 234
Benzethonium Salicylate [Example 53] | 180
Caffeine Salicylate [Example 13] | 111
Cetylpyridinium Salicylate-cinnamate [CetPySalCinnH] | 162

same assay, conditions: TGA/DSC, 25° C. to 600° C. with 5° C./min under nitrogen; cetylpyridinium salicylate-salicylic acid co-ionic liquids

Molecule | T5%onset [°C]
CCCCCCCCCCCCCCCC[n+]1ccccc1 [CetPy:Sal 1:1, Cetylpyridinium Salicylate] | 206
Cetylpyridinium Salicylate-salicylic Acid [CetPy:Sal 1:2] | 184

same assay, conditions: TGA/DSC, 25° C. to 600° C. with 5° C./min under nitrogen; choline salicylate-salicylic acid co-ionic liquids

Molecule | T5%onset [°C]
C[N+](C)(C)CCO.O=C([O-])c1ccccc1O [Cho:Sal 1:1, choline salicylate] | 203

same assay, conditions: TGA/DSC, 25° C. to 600° C. with 5° C./min under nitrogen; ephedrinium clofibrate co-ionic liquids prepared by melting

Molecule | Tonset 5% [°C]
CC(C)(Oc1ccc(Cl)cc1)C(=O)O.CN[C@@H](C)[C@H](O)c1ccccc1 [Eph:Clofib 1:1, Ephedrinium Clofibrate] | 169
CC(C)(Oc1ccc(Cl)cc1)C(=O)O.CN[C@@H](C)[C@H](O)c1ccccc1.CN[C@@H](C)[C@H](O)c1ccccc1 [Eph:Clofib 2:1, Ephedrinium Clofibrate] | 135

same assay, conditions: TGA/DSC, 25° C. to 600° C. with 5° C./min under nitrogen; lidocaine salicylate co-ionic liquids

Molecule | Tonset 5% [°C]
CCN(CC)CC(=O)Nc1c(C)cccc1C [Lid, lidocaine, reference compound] | 152
CCN(CC)CC(=O)Nc1c(C)cccc1C.O=C(O)c1ccccc1O [Lid:Sal 1:1, Lidocainium Salicylate] | 161
O=C(O)c1ccccc1O [Salicylic acid, reference compound] | 134

same assay, conditions: TGA/DSC, 25° C. to 600° C. with 5° C./min under nitrogen; tetrabutylphosphonium ibuprofenate-ibuprofenic co-ionic liquids

Molecule | T5%onset [°C]
CC(C)Cc1ccc(C(C)C(=O)[O-])cc1.CCCC[P+](CCCC)(CCCC)CCCC [P(Bu)4Ibu 1:1, Tetrabutylphosphonium Ibuprofenate] | 234

same assay, conditions: TGA/DSC, 25° C. to 600° C. with 5° C./min under nitrogen; tetrabutylphosphonium lactate-lactic acid co-ionic liquids

Molecule | T5%onset
CCCC[P+](CCCC)(CCCC)CCCC [P(Bu)4Lac 1:1, tetrabutylphosphonium lactate] | 262
CCCC[P+](CCCC)(CCCC)CCCC [P(Bu)4Lac 1:2, Tetrabutylphosphonium Lactate-lactic Acid] | 215

same assay, conditions: TGA/DSC, 25° C. to 600° C. with 5° C./min under nitrogen; tetrabutylphosphonium salicylate-salicylic acid co-ionic liquids

Molecule | T5%onset [°C]
O=C(O)c1ccccc1O [Salicylic acid, reference compound] | 136
